Data taken from patent US20170000132A1, “BENZOXABOROLE FUNGICIDES” (SYNGENTA PARTICIPATIONS AG, priority 2013, published 2017).

Key:
Puccinia recondita = Puccinia recondita / wheat plants, spray chamber; type: in vivo; details: 20 ppm; 1 week old wheat plants cv. Arina, sprayed 2 days before inoculation, assessed 10 days after inoculation
Method: Fungicidal Activity Against Puccinia recondita/Wheat 1 week old wheat plants cv. Arina were treated with the formulated test compound in a spray chamber. Two days after application wheat plants were inoculated by spraying a spore suspension (1×105 uredospores/ml) on the test plants. After an incubation period of 1 day at […] and 95% r. h. plants were kept for 9 days at […] and 60% r.h. in a greenhouse. The disease incidence was assessed 10 days after inoculation.

[1] = system: Giberella zeae (Fusarium graminearum); type: in vivo; details: 200 ppm; wheat spikelets, preventative, assessed 6 dpi; compared to untreated control
[2] = system: Monographella nivale (Microdochium nivale); experiment: Monographella nivale / wheat pouch test with infected seeds; type: in vivo, M. nivale; details: 60 ppm; infected wheat seeds cv. Arina in pouch, 4 weeks after sowing; compared to untreated control
Method: Fungicidal Activity Against Monographella nivale (Microdochium nivale)/Wheat
Formulated test compound is applied into a pouch which was previously equipped with a filter paper. After the application wheat seeds cv. Arina infected with M. nivale are sown into the upper fault of the filter paper. The pouches are then incubated for 7 days in the dark at 7° C./5° C. (day/night) and 80% r. h. After 1 week light is supplied at the same temperature cycle. Another two weeks later plants were transferred to 17° C./16° C. (day/night) and 80% r. H. The disease incidence is assessed 4 weeks after sowing.

Phytophthora infestans = type: in vivo; details: 200 ppm; tomato leaf disks, preventative; compared to untreated control

OB1OCc2cc(Cl)c(C=NOCC=C(Cl)Cl)cc21 (single isomer, unassigned) [Compound 50]
disease control (disease incidence) (Puccinia recondita): at least 80%

COC(=O)Cc1ccccc1CON=Cc1cc2c(cc1Cl)COB2O (single isomer, unassigned) [Compound 59]
disease control [1]: at least 80%

CCOC(=O)CNN=Cc1cc2c(cc1Cl)COB2O (single isomer, unassigned) [Compound 70]
disease control (disease incidence) [2]: at least 80%

CNC(=S)NN=Cc1cc(Cl)cc2c1B(O)OC2 (single isomer, unassigned) [Compound 224]
disease control (Phytophthora infestans): at least 80%
